In general, EC50 refers to the midpoint of the concentration-response curve. Low values mean greater potency, high ones weaker potency.

Some results are limits rather than exact numbers.

Data on 30 compounds can be found in patent publication US8962639B2, “Potassium channel modulators” (AbbVie Inc., priority 2009, dated 2015).

The target of this test is T1, human KCNQ2 and KCNQ3 (Homo sapiens, UniProt O43525+O43526).
T1 construct: expressed in transfected cells; host or cells: HEK293
Put plainly: KCNQ 2/3 channel activation, thallium flux FLIPR assay (BTC-AM dye) in HEK293 cells. The test is classed as cell-based. The following applies: for Emax: HEK293, maximum response relative to response of retigabine at 10 μM set at 100%, read-out: Max response; for EC50: HEK293 cells stably expressing human KCNQ2 and KCNQ3, compound incubated 4 minutes, Tl+ flux fluorescence; for Max response: maximum response relative to response of retigabine at 10 μM set at 100%. How it is done: The following example describes the assay that can be used to identify compounds that activate KCNQ 2/3 channels.
HEK293 cells stably expressing human KCNQ2 and KCNQ3 were seeded in 96-well, black-walled, clear-bottomed, poly-D-lysine coated plates (BD Biosciences, Bedford, Mass.) at a density of 1×10^5 cells per well 24 hours before the assay. On the assay day, BTC-AM dye (Invitrogen, Carlsbad, Calif.) was loaded into the cells by replacing the cell culture medium with 100 μL/well of 4 μM dye in DPBS. Dye loading was allowed to proceed for 2 hours at room temperature and then cells were washed twice in 100 μL/well of assay buffer (in mM: 10 HEPES pH 7.3, 5 glucose, 140 Na-gluconate, 2.5 K-gluconate, 3.6 Ca-gluconate, 2 MgSO4, 0.1 Ouabain) to remove unloaded dye. Cells were incubated in 50 μL of assay buffer before loading onto a FLIPR system (Molecular Devices, Sunnyvale, Calif.). Various concentrations of compounds to be assayed were added to the cells in 50 μL of assay buffer and incubated for 4 minutes. The fluorescence signal was initiated by adding 100 μL of assay buffer containing 6 mM TlNO3 and 10 mM K2SO4. Fluors were excited using the 488-nm line of an argon laser and emission was filtered using a 540±30 nm bandpass filter. Fluorescent signals were recorded for 3 minutes. Responses over baseline values were plotted versus concentrations of test compounds to obtain an EC50 value. The maximum response for each test compound was determined relative to the response produced at 10 μM by retigabine. The maximum response of retigabine at 10 μM was set at 100%.

T1 sequence (O43526 whole entry): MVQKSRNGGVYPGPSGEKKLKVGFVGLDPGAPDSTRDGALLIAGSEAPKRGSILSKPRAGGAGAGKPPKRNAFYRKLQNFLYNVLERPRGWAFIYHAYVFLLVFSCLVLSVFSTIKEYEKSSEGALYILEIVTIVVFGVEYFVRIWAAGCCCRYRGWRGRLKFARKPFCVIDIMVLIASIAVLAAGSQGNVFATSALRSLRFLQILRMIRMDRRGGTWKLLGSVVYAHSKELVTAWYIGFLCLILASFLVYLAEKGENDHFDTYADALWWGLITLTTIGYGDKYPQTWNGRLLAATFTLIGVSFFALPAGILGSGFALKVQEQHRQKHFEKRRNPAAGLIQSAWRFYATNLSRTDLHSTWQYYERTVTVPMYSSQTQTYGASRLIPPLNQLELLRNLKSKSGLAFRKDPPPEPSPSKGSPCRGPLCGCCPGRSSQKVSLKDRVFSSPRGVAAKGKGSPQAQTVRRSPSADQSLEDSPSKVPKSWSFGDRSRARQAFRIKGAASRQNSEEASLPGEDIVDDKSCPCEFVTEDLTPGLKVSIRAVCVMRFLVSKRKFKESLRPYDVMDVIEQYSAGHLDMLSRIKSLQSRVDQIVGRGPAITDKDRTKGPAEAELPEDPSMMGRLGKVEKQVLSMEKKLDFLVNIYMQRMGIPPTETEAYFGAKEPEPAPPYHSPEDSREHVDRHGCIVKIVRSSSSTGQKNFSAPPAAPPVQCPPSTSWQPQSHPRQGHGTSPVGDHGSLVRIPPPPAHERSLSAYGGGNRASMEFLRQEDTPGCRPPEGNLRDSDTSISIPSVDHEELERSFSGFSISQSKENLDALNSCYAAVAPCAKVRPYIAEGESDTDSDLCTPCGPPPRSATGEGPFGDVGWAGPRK
T1 sequence (O43525 whole entry): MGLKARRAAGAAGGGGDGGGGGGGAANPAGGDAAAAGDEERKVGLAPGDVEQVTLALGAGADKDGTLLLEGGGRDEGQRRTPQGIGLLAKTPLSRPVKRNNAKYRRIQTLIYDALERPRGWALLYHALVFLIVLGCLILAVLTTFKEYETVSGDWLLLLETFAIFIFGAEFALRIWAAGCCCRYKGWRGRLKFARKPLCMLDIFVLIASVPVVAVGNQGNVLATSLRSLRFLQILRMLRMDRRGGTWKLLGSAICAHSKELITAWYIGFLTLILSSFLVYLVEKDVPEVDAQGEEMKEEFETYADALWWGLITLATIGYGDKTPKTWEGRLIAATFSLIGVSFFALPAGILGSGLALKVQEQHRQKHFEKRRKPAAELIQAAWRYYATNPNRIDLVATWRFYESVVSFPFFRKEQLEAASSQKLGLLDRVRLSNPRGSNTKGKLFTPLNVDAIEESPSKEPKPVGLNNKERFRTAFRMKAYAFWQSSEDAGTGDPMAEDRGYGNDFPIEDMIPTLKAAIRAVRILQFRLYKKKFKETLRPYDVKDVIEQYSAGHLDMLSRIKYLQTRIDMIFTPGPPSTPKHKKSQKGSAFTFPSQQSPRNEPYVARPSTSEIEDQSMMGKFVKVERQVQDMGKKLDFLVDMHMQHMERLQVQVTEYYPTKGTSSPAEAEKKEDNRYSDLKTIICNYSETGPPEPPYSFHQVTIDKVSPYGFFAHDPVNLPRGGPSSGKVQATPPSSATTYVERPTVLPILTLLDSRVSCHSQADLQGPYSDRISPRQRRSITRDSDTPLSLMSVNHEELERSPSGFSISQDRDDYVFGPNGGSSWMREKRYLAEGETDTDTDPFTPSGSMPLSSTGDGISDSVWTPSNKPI

On to `CC(C)c1nc2cc(-c3ccccc3F)sc2c(=O)n1NC(=O)CC1CC2CCC1C2` (racemic) [Example 41, (±)-2-[(exo)-bicyclo[2.2.1]hept-2-yl]-N-[6-(2-fluorophenyl)-2-isopropyl-4-oxothieno[3,2-d]pyrimidin-3(4H)-yl]acetamide], for which the Emax was 17% and the EC50 was greater than 30000 nM.

In turn, `CC(C)c1nc2ccccc2c(=O)n1NC(=O)CC1CC2CCC1C2` (racemic) [Example 42, (±)-2-[(endo)-bicyclo[2.2.1]hept-2-yl]-N-(2-isopropyl-4-oxoquinazolin-3(4H)-yl)acetamide] yielded an EC50 of 86.8 nM and a Max response of 150%.

On to `CCc1nc2ccccc2c(=O)n1NC(=O)CC1CC2CCC1C2` (racemic) [Example 43, (±)-2-[(endo)-bicyclo[2.2.1]hept-2-yl]-N-(2-ethyl-4-oxoquinazolin-3(4 H)-yl)acetamide], for which the Emax stood at 150% and the EC50 was determined as 386 nM.

With `O=C(C[C@H]1C[C@@H]2CC[C@H]1C2)Nn1c(C2CC2)nc2cc(F)ccc2c1=O` (racemic) [Example 61, (±)-2-[(exo)-bicyclo[2.2.1]hept-2-yl]-N-(2-cyclopropyl-7-fluoro-4-oxoquinazolin-3(4H)-yl)acetamide], the Emax came out at 145% and the EC50 is 30.7 nM.

`CC(C)c1nc2ccccc2c(=O)n1NC(=O)CC1CC2CCC1C2` (single isomer, unassigned; (+)) [Example 30, (+)-exo-2-[bicyclo[2.2.1]hept-2-yl]-N-(2-isopropyl-4-oxoquinazolin-3(4H)-yl)acetamide]: the midpoint of the response, the EC50, lay at 47.7 nM and the Max response was found to be 145%.

In the case of `CC(C)c1nc2ccccc2c(=O)n1NC(=O)CC1CC2CCC1C2` (single isomer, unassigned; (-)) [Example 29, (−)-exo-2-[bicyclo[2.2.1]hept-2-yl]-N-(2-isopropyl-4-oxoquinazolin-3(4H)-yl)acetamide], the Emax was determined as 136% and the EC50 came to 16.7 nM.

For `CC(C)c1nc2ccccc2c(=O)n1NC(=O)CC1C2CC3CC(C2)CC1C3` (stereo not drawn) [Example 1, 2-(2-adamantyl)-N-(2-isopropyl-4-oxoquinazolin-3(4H)-yl)acetamide], the Emax came to 88.8% and the midpoint of the response, the EC50, lay at 138 nM.

Turning to `O=C(Cc1ccc(Cl)cc1)Nn1c(C23CC4CC(CC2C4)C3)nc2ccccc2c1=O` [Example 2, 2-(4-chlorophenyl)-N-(2-hexahydro-2,5-methanopentalen-3a(1H)-yl-4-oxoquinazolin-3(4H)-yl)acetamide], the Emax was determined as 140% and it took 198 nM to reach a half-maximal effect (EC50).

Consider `O=C(CCC1CCCC1)Nn1c(C23CC4CC(CC2C4)C3)nc2ccccc2c1=O` [Example 3, 3-cyclopentyl-N-(2-hexahydro-2,5-methanopentalen-3a(1H)-yl-4-oxoquinazolin-3(4H)-yl)propanamide], for which the Emax was determined as 171% and the response was half-maximal at 277 nM (EC50).

Consider `CC(=O)Nn1c(C23CC4CC(CC2C4)C3)nc2ccccc2c1=O` [Example 4, N-(2-hexahydro-2,5-methanopentalen-3a(1H)-yl-4-oxoquinazolin-3(4H)-yl)acetamide], for which the Emax turned out to be 60.4% and a half-maximal effect (EC50) was put at 2720 nM.

`CC(C)c1nc2ccccc2c(=O)n1NC(=O)CC12CC3CC(CC(C3)C1)C2` [Example 5, 2-(1-adamantyl)-N-(2-isopropyl-4-oxoquinazolin-3(4H)-yl)acetamide]: the Emax was 122% and it took 148 nM to reach a half-maximal effect (EC50).

In the case of `O=C(CC12CC3CC(CC(C3)C1)C2)Nn1c(-c2ccccc2)nc2ccccc2c1=O` [Example 6, 2-(1-adamantyl)-N-(4-oxo-2-phenylquinazolin-3(4H)-yl)acetamide], the Emax was found to be 103% and the midpoint of the response, the EC50, lay at 341 nM.

`O=C(CC12CC3CC(CC(C3)C1)C2)Nn1cnc2ccccc2c1=O` [Example 7, 2-(1-adamantyl)-N-(4-oxoquinazolin-3(4H)-yl)acetamide]: the Emax was 133% and the midpoint of the response, the EC50, lay at 116 nM.

For the compound `Cc1nc2ccccc2c(=O)n1NC(=O)CC12CC3CC(CC(C3)C1)C2` [Example 8, 2-(1-adamantyl)-N-(2-methyl-4-oxoquinazolin-3(4H)-yl)acetamide], the Emax stood at 108% and the EC50 is 684 nM.

In the case of `CCc1nc2ccccc2c(=O)n1NC(=O)CC12CC3CC(CC(C3)C1)C2` [Example 9, 2-(1-adamantyl)-N-(2-ethyl-4-oxoquinazolin-3(4H)-yl)acetamide], the Emax came to 124% and the EC50 is 115 nM.

Take `CC(C)c1nc2ccccc2c(=O)n1NC(=O)CCC12CC3CC(CC(C3)C1)C2` [Example 13, 3-(1-adamantyl)-N-(2-isopropyl-4-oxoquinazolin-3(4H)-yl)propanamide]: the Emax is 172% and a half-maximal effect (EC50) was put at 399 nM.

As for `CCc1nc2sccc2c(=O)n1NC(=O)CC12CC3CC(CC(C3)C1)C2` [Example 14, 2-(1-adamantyl)-N-(2-ethyl-4-oxothieno[2,3-d]pyrimidin-3(4H)-yl)acetamide], the Emax is 120% and the EC50 worked out at 691 nM.

On to `O=C(CCC12CC3CC(CC(C3)C1)C2)Nn1c(-c2ccccc2)nc2ccccc2c1=O` [Example 15, 3-(1-adamantyl)-N-(4-oxo-2-phenylquinazolin-3(4H)-yl)propanamide], for which the Emax was found to be 79.7% and the EC50 stood at 309 nM.

Consider `O=C(CC12CC3CC(CC(C3)C1)C2)Nn1cnc2ccc(Cl)cc2c1=O` [Example 16, 2-(1-adamantyl)-N-(6-chloro-4-oxoquinazolin-3(4H)-yl)acetamide], for which the Emax is 32.1% and the EC50 amounted to 261 nM.

As for `Cc1nc2sccc2c(=O)n1NC(=O)CC12CC3CC(CC(C3)C1)C2` [Example 17, 2-(1-adamantyl)-N-(2-methyl-4-oxothieno[2,3-d]pyrimidin-3(4H)-yl)acetamide], the Emax came out at 61.1% and the EC50 is 2500 nM.

With `CCc1cc2c(=O)n(NC(=O)CC34CC5CC(CC(C5)C3)C4)cnc2s1` [Example 20, 2-(1-adamantyl)-N-(6-ethyl-4-oxothieno[2,3-d]pyrimidin-3(4H)-yl)acetamide], the Emax came out at 139% and the half-maximal effective concentration (EC50) stood at 438 nM.

For `CC(C)c1nc2ccccc2c(=O)n1NC(=O)CC12CC3CC(CC(Cl)(C3)C1)C2` [Example 21, 2-[3-chloro-1-adamantyl]-N-(2-isopropyl-4-oxoquinazolin-3(4H)-yl)acetamide], the Emax came out at 132% and the midpoint of the response, the EC50, lay at 403 nM.

On to `O=C(CC12CC3CC(CC(C3)C1)C2)Nn1c(COc2ccccc2)nc2ccccc2c1=O` [Example 25, 2-(1-adamantyl)-N-[4-oxo-2-(phenoxymethyl)quinazolin-3(4H)-yl]acetamide], for which the Emax was found to be 118% and the response was half-maximal at 3010 nM (EC50).

As for `O=C(CC12CC3CC(CC(C3)C1)C2)Nn1cnc2ccsc2c1=O` [Example 26, 2-(1-adamantyl)-N-(4-oxothieno[3,2-d]pyrimidin-3(4H)-yl)acetamide], the Emax is 140% and a half-maximal effect (EC50) was put at 2680 nM.

In the case of `O=C(CC12CC3CC(CC(C3)C1)C2)Nn1cnc2scc(-c3ccc(F)cc3)c2c1=O` [Example 27, 2-(1-adamantyl)-N-[5-(4-fluorophenyl)-4-oxothieno[2,3-d]pyrimidin-3(4H)-yl]acetamide], the Emax came to 199% and it took 846 nM to reach a half-maximal effect (EC50).

On to `O=C(CC12CC3CC(CC(C3)C1)C2)Nn1c(=O)[nH]c2ccccc2c1=O` [Example 28, 2-(1-adamantyl)-N-(2,4-dioxo-1,4-dihydroquinazolin-3(2H)-yl)acetamide], for which the Emax was determined as 93.3% and a half-maximal effect (EC50) was put at 1750 nM.

Regarding `Cc1nc2cc(Cl)ccc2c(=O)n1NC(=O)CC12CC3CC(CC(C3)C1)C2` [Example 35, 2-(1-adamantyl)-N-(7-chloro-2-methyl-4-oxoquinazolin-3(4H)-yl)acetamide], the Emax stood at 20.8% and the EC50 was greater than 30000 nM.

Turning to `O=C(CC12CC3CC(CC(C3)C1)C2)Nn1cnc2ccc(Br)cc2c1=O` [Example 36, 2-(1-adamantyl)-N-(6-bromo-4-oxoquinazolin-3(4H)-yl)acetamide], the Emax was determined as 10.8% and the EC50 is greater than 30000 nM.

`O=C(CC12CC3CC(CC(C3)C1)C2)Nn1cnc2sc(-c3ccccc3)cc2c1=O` [Example 37, 2-(1-adamantyl)-N-(4-oxo-6-phenylthieno[2,3-d]pyrimidin-3(4H)-yl)acetamide]: the Emax turned out to be 9.51% and the EC50 is greater than 30000 nM.

Consider `O=C(Nn1c(-c2ccccc2)nc2ccccc2c1=O)C1C2CC3CC(C2)CC1C3` (stereo not drawn) [Example 38, N-(4-oxo-2-phenylquinazolin-3(4H)-yl)adamantane-2-carboxamide], for which the Emax was -43.5% and the EC50 was greater than 30000 nM.
